Experimental data reported in patent publication US20260308186A1, “STAT DEGRADERS AND USES THEREOF” (Recludix Pharma, Inc., priority 2023, published 2026).

Key:
STAT3 = molecular target: T1, STAT3 (Homo sapiens, UniProt P40763); experiment: STAT3 Fluorescence Polarization (FP) Assay; type: binding; settings: recombinant STAT3 25 nM; probe 5-FAM-GpYLPQTV-NH2 2 nM; 45 min, room temperature; read-out: STAT3 FP IC50
T1 construct: Recombinant STAT3 protein (STAT3(G127-1722))

STAT6 = molecular target: T2, STAT6 (Homo sapiens, UniProt P42226); experiment: STAT6 Fluorescence Polarization (FP) Assay; type: binding; settings: recombinant STAT6(W123-T658) 250 nM; probe 5-FAM-Ap[…]-NH2 2 nM; 45 min, room temperature; read-out: STAT6 FP IC50
T2 construct: Recombinant STAT6 protein (STAT6(W123-T658))
T2 sequence (P42226 123-658): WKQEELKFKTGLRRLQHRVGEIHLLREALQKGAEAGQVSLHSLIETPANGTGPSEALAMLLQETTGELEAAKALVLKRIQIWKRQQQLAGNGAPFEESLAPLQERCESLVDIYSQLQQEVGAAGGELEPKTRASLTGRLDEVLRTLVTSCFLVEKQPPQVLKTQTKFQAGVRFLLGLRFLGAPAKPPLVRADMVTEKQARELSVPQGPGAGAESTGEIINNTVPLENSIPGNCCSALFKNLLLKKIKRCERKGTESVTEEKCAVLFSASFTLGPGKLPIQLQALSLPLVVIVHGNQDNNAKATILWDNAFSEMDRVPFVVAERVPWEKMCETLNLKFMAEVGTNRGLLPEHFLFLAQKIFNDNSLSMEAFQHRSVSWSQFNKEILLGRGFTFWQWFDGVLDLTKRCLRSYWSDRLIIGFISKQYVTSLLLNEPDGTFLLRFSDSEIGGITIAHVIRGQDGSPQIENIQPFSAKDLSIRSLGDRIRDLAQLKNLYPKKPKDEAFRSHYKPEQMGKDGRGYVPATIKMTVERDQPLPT
Procedure: STAT6 Fluorescence Polarization (FP) Assay
An FP assay was developed to determine IC50 values for test substances. Recombinant STAT6 protein (STAT6(W123-T658)) at 250 nM was combined with a fluorescently labeled, phosphotyrosine peptide probe (5-FAM-Ap[…]-NH2) at 2 nM in FP buffer (10 mM HEPES pH 7.4, 50 mM NaCl, 1 mM EDTA, 0.05% Tween 20, 2 mM DTT), 50 μL of STAT6-probe mixture was added to serial diluted compounds in black, 96-well plates (Greiner BioOne 655076) to a final concentration of 1% DMSO. Reaction components were mixed, and FP was measured after 45-minute incubation at room temperature using a Tecan Spark multimode plate reader. FP signal (mP) was plotted against the log concentration of the test substances and IC50 values were calculated by nonlinear regression analysis using GraphPad Prism software. For STAT6 FP assay. A=≤300 nM; B=>300-3000 nM; C=>3-30 μM; and D=>30 μM.

pSTAT6 = molecular target: T3, pSTAT6 (Homo sapiens, UniProt P42226); experiment: MSD-pSTAT-PBMC Assay, pSTAT6 (IL-4 stimulated PBMC); type: cell-based; settings: compound 3 hrs, then 1 ng/mL IL-4 for 10 min, pY641-STAT6, read-out: pSTAT6 IC50
T3 construct: pY641-STAT6 MSD read-out
T3 sequence (P42226 1-847): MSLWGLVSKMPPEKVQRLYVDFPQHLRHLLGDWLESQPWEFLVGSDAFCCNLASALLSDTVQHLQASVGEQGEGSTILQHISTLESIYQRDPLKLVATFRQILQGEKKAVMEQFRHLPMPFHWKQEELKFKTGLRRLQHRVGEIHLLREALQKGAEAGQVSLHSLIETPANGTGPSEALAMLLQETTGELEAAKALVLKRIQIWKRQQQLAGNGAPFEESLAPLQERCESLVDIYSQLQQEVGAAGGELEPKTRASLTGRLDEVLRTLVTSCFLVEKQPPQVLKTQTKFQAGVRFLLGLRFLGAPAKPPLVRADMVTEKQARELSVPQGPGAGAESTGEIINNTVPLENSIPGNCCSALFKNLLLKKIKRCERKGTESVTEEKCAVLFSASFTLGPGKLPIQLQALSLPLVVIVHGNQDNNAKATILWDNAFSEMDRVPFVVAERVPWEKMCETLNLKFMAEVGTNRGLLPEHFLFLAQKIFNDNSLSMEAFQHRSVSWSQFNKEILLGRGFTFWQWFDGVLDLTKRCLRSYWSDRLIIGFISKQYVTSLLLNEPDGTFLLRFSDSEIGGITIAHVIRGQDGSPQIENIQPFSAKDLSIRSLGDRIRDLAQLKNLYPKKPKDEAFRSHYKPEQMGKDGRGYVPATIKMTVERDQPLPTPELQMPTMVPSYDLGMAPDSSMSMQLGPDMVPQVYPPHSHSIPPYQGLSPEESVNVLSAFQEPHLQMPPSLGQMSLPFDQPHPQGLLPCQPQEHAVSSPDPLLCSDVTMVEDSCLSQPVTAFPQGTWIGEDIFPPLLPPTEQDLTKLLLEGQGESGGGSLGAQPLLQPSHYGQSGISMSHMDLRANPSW
Method in brief: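 Human PBMC were recovered overnight, treated 3 h with compound, then stimulated for 10 min with 10 ng/mL IL-6 (pSTAT3) or 1 ng/mL IL-4 (pSTAT6). Lysates were read by MSD sandwich immunoassay, with total STAT capture and pY705-STAT3 or pY641-STAT6 detection. Signal minus unstimulated wells was normalized to DMSO, and IC50 came from a variable-slope fit.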

pSTAT3 = molecular target: T4, pSTAT3 (Homo sapiens, UniProt P40763); experiment: MSD-pSTAT-PBMC Assay, pSTAT3 (IL-6 stimulated PBMC); type: cell-based; settings: read-out: pSTAT3 IC50, compound 3 hrs, then 10 ng/mL IL-6 for 10 min, pY705-STAT3
T4 construct: pY705-STAT3 MSD read-out
T4 sequence (P40763 whole entry): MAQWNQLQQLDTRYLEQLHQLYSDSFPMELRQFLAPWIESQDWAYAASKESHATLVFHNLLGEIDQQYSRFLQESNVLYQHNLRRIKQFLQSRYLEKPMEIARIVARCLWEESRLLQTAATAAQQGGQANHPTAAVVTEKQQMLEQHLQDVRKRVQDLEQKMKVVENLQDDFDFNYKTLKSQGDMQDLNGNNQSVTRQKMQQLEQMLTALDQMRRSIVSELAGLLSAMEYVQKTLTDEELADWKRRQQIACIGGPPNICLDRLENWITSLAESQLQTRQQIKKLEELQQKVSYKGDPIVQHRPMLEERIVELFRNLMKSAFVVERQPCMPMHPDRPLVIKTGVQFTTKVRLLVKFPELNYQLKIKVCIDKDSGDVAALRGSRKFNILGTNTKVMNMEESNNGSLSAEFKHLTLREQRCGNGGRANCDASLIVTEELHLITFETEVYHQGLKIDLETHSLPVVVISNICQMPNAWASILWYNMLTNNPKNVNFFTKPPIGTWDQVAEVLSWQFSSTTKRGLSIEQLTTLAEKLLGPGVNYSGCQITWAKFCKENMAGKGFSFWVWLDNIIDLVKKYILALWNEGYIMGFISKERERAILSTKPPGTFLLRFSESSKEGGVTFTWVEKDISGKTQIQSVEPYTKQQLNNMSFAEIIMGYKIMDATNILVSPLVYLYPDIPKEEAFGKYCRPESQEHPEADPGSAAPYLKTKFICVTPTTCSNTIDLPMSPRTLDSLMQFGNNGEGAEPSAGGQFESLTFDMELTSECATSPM
Text: Cryopreserved Peripheral Blood Mononuclear Cells (PBMC) are from AllCells. Recombinant Human IL-4 and IL-6 are from Peprotech. Mouse monoclonal anti-STAT3 antibody, rabbit monoclonal anti-pY705-STAT3 antibody, rabbit monoclonal Anti-pY641-STAT6 antibody, and lysis buffer are from Cell Signaling Technology (CST). Mouse monoclonal anti-STAT6 antibody is from BioLegend. Assay plates, blocker, and anti-rabbit secondary antibody are from Meso Scale Discovery (MSD).
Cryopreserved PBMCs were thawed out and allowed to recover overnight in IMDM+10% heat-inactivated FBS prior to plating 50,000 (STAT3) or 25,000 (STAT6) cells per well in 96-well U-bottom tissue culture plates. Cells were treated with compound for 3 hrs. then stimulated with 10 ng/mL IL-6 (STAT3) or 1 ng/mL IL-4 (STAT6) for 10 min. Cells were then spun down and washed with ice-cold PBS prior to lysing the cell pellet with 1× lysis buffer (CST) with 1×HALT protease and phosphatase inhibitor cocktail (Thermo). Lysates were transferred to and incubated overnight at 4° C. with shaking in QuickPlex 96-well high bind assay plates (MSD) pre-coated overnight with 30 μL per well of 0.6 μg/mL mouse monoclonal anti-STAT3 antibody (STAT3) or 2 μg/mL mouse monoclonal anti-STAT6 antibody (STAT6) in 1×PBS, and pre-blocked for 1 hour with 3% Blocker-A (MSD). Captured protein in the assay plates were then washed and probed with 25 μL per well of 0.25 μg/ml rabbit monoclonal anti-pY705-STAT3 antibody (STAT3) or 0.18 μg/ml rabbit monoclonal Anti-pY641-STAT6 antibody (STAT6) in 1% Blocker-A for 1 hour at room temperature with shaking, then washed and probed with 25 ul per well of 1 ug/ml Sulfo-TAG Labeled Goat Anti-Rabbit Antibody (MSD) in 1% Blocker-A for 1 hour at room temperature with shaking. Assay plates were then washed and 150 μL of 1× Read Buffer-T (MSD) was added to each well prior to reading on an SQ120 MSD Plate Reader. Assay signal from each sample was subtracted by the signal from unstimulated control wells and normalized to DMSO control wells. IC50 values were calculated using Graph Pad Prism Dose-Response Nonlinear Regression with variable slope. For both pSTAT3 and pSTAT6 A=≤100 nM; B=>100-1000 nM; C=>1000-3000 nM; and D=>3 μM.

T1 sequence (P40763 127-722 limits assumed): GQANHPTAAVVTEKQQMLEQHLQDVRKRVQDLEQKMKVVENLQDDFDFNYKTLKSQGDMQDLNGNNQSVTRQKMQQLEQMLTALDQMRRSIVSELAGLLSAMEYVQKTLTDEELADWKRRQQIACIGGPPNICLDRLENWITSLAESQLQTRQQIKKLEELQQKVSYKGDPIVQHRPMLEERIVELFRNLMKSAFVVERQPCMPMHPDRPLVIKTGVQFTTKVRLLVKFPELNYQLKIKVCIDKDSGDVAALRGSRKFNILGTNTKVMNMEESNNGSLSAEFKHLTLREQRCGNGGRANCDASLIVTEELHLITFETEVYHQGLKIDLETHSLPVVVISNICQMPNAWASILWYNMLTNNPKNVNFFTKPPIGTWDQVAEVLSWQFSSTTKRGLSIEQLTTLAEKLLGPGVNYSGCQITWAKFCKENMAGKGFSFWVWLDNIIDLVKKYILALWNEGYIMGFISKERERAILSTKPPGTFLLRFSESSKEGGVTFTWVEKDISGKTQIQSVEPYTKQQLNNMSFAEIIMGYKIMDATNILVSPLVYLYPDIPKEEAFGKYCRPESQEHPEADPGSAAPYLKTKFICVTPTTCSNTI

IC50 (STAT3)	IC50 (STAT6)	IC50 (pSTAT6)	Compound	IC50 (pSTAT3)
1 to 10 µM	< 0.3 µM	> 3 µM	Cc1ccc2onc(C(=O)N3CC[C@H]4CC[C@@H](C(=O)N5CCN(c6ccc7c(c6)[nH]c(=O)n7C6CCC(=O)NC6=O)CC5)N4C(=O)[C@@H](NC(=O)c4ccc5ccc(C(F)(F)P(=O)(O)O)cc5c4)C3)c2c1 (stereo partly drawn) [Compound 34, ((7-(((5S,8S,10aR)-8-(4-(1-(2,6-dioxopiperidin-3-yl)-2-oxo-2,3-dihydro-1H-benzo[d]imidazol-5-yl)piperazine-1-carbonyl)-3-(5-methylbenzo[d]isoxazole-3-carbonyl)-6-oxodecahydropyrrolo[1,2-a][1,5]diazocin-5-yl)carbamoyl)naphthalen-2-yl)difluoromethyl)phosphonic acid]	
> 10 µM	< 0.3 µM	> 3 µM	Cc1ccc2onc(C(=O)N3CC[C@H]4CC[C@@H](C(=O)Nc5cccc6c5CN(C5CCC(=O)NC5=O)C6=O)N4C(=O)[C@@H](NC(=O)c4ccc5ccc(C(F)(F)P(=O)(O)O)cc5c4)C3)c2c1 (stereo partly drawn) [Compound 35, ((7-(((5S,8S,10aR)-8-((2-(2,6-dioxopiperidin-3-yl)-1-oxoisoindolin-4-yl)carbamoyl)-3-(5-methylbenzo[d]isoxazole-3-carbonyl)-6-oxodecahydropyrrolo[1,2-a][1,5]diazocin-5-yl)carbamoyl)naphthalen-2-yl)difluoromethyl)phosphonic acid]	
1 to 10 µM	< 0.3 µM	> 3 µM	Cc1ccc2onc(C(=O)N3CC[C@H]4CC[C@@H](C(=O)N5CCN(c6cccc7c6[nH]c(=O)n7C6CCC(=O)NC6=O)CC5)N4C(=O)[C@@H](NC(=O)c4ccc5ccc(C(F)(F)P(=O)(O)O)cc5c4)C3)c2c1 (stereo partly drawn) [Compound 36, ((7-(((5S,8S,10aR)-8-(4-(1-(2,6-dioxopiperidin-3-yl)-2-oxo-2,3-dihydro-1H-benzo[d]imidazol-4-yl)piperazine-1-carbonyl)-3-(5-methylbenzo[d]isoxazole-3-carbonyl)-6-oxodecahydropyrrolo[1,2-a][1,5]diazocin-5-yl)carbamoyl)naphthalen-2-yl)difluoromethyl)phosphonic acid]	
> 10 µM	< 0.3 µM	> 3 µM	Cc1ccc2onc(C(=O)N3CC[C@H]4CC[C@@H](C(=O)N5CCN(c6ccc7[nH]c(=O)n(C8CCC(=O)NC8=O)c7c6)CC5)N4C(=O)[C@@H](NC(=O)c4ccc5ccc(C(F)(F)P(=O)(O)O)cc5c4)C3)c2c1 (stereo partly drawn) [Compound 37, ((7-(((5S,8S,10aR)-8-(4-(3-(2,6-dioxopiperidin-3-yl)-2-oxo-2,3-dihydro-1H-benzo[d]imidazol-5-yl)piperazine-1-carbonyl)-3-(5-methylbenzo[d]isoxazole-3-carbonyl)-6-oxodecahydropyrrolo[1,2-a][1,5]diazocin-5-yl)carbamoyl)naphthalen-2-yl)difluoromethyl)phosphonic acid]	
			CCCC(=O)SCCOP(=O)(OCCSC(=O)CCC)C(F)(F)c1ccc2sc(C(=O)N[C@H]3CN(C(=O)CCCCCC#Cc4cccc5c4CN(C4CCC(=O)NC4=O)C5=O)CC[C@H]4CC[C@@H](C(=O)N5CC(c6cnccc6N(C)C)C5)N4C3=O)cc2c1 (stereo partly drawn) [Compound 38, S,S′-(((((2-(((5S,8S,10aR)-8-(3-(4-(dimethylamino)pyridin-3-yl)azetidine-1-carbonyl)-3-(8-(2-(2,6-dioxopiperidin-3-yl)-1-oxoisoindolin-4-yl)oct-7-ynoyl)-6-oxodecahydropyrrolo[1,2-a][1,5]diazocin-5-yl)carbamoyl)benzo[b]thiophen-5-yl)difluoromethyl)phosphoryl)bis(oxy))bis(ethane-2,1-diyl)) dibutanethioate]	< 0.1 µM
> 10 µM	< 0.3 µM	> 3 µM	Cc1ccc2onc(C(=O)N3CC[C@H]4CC[C@@H](C(=O)N(C)CCCCCCC#Cc5cccc6c5CN(C5CCC(=O)NC5=O)C6=O)N4C(=O)[C@@H](NC(=O)c4ccc5ccc(C(F)P(=O)(O)O)cc5c4)C3)c2c1 (stereo partly drawn) [Compound 40, ((7-(((5S,8S,10aR)-8-((8-(2-(2,6-dioxopiperidin-3-yl)-1-oxoisoindolin-4-yl)oct-7-yn-1-yl)(methyl)carbamoyl)-3-(5-methylbenzo[d]isoxazole-3-carbonyl)-6-oxodecahydropyrrolo[1,2-a][1,5]diazocin-5-yl)carbamoyl)naphthalen-2-yl)fluoromethyl)phosphonic acid]	
